In patent US7977327B2, “Substituted pyrrolidine derivative” (Daiichi Sankyo Company, Limited, priority 2004, dated 2011):
Converted amounts (≈) assume the structure as drawn. Marks after values point to notes of the source that are not given here.

Legend:
[1] = system: K. pneumoniae TYPE I; experiment: Antibacterial activity (MIC), standard method of the Japan Society of Chemotherapy; format: cell-based; settings: Klebsiella pneumoniae; K. pneumoniae TYPE I; read-out: MIC
Experimental: (§1) The antimicrobial activities of the compounds of the present invention were determined according to a standard method designated by the Japan Society of Chemotherapy. The results are expressed by MIC (μg/mL) (Table 1). In Table 1, S. aureus 870307 and S. pneumonia J24 are quinolone-resistant bacteria.

[2] = system: E. coli NIHJ; experiment: as above; format: cell-based; settings: Escherichia coli; E. coli NIHJ; read-out: MIC
Experimental: as §1

[3] = system: P. Vulgalis 08601; experiment: as above; format: cell-based; settings: P. Vulgalis 08601; read-out: MIC
Experimental: as §1

[4] = system: S. aureus 870307; experiment: as above; format: cell-based; settings: Staphylococcus aureus; S. aureus 870307, quinolone-resistant; read-out: MIC
Experimental: as §1

[5] = system: P. aeruginosa 32104; experiment: as above; format: cell-based; settings: Pseudomonas aeruginosa; P. aeruginosa 32104; read-out: MIC
Experimental: as §1

[6] = system: S. marcescens 10100; experiment: as above; format: cell-based; settings: Serratia marcescens; S. marcescens 10100; read-out: MIC
Experimental: as §1

[7] = system: S. aureus FDA 209P; experiment: as above; format: cell-based; settings: Staphylococcus aureus, FDA209P; S. aureus FDA 209P; read-out: MIC
Experimental: as §1

[8] = system: S. pyogenes G-36; experiment: as above; format: cell-based; settings: Streptococcus pyogenes, G36; S. pyogenes G-36; read-out: MIC
Experimental: as §1

[9] = system: P. aeruginosa 32121; experiment: as above; format: cell-based; settings: Pseudomonas aeruginosa; P. aeruginosa 32121; read-out: MIC
Experimental: as §1

[10] = system: S. pneumoniae J24; experiment: as above; format: cell-based; settings: Streptococcus pneumoniae; S. pneumoniae J24, quinolone-resistant; read-out: MIC
Experimental: as §1

[11] = system: S. maltophilia IID 1275; experiment: as above; format: cell-based; settings: Stenotrophomonas maltophilia, IID1275; S. maltophilia IID 1275; read-out: MIC
Experimental: as §1

[12] = system: S. epidermidis 56500; experiment: as above; format: cell-based; settings: Staphylococcus epidermidis; S. epidermidis 56500; read-out: MIC
Experimental: as §1

[13] = system: E. faevcalis ATCC 19433; experiment: as above; format: cell-based; settings: E. faevcalis ATCC 19433; read-out: MIC
Experimental: as §1

[14] = system: S. flexneri 2A 5503; experiment: as above; format: cell-based; settings: Shigella flexneri, 2A5503, read-out: MIC
Experimental: as §1

[15] = system: Chinese hamster lung (CHL/IU) cells; experiment: Effect of inducing chromosomal aberration; format: cell-based; settings: for Percentile induction of structural aberration (TA %): 24 hours, CHL/IU cells; for Significant increase in number of the cells exhibiting chromosomal aberration: at a concentration of up to 100 μg/mL
Experimental: From each sample solution, samples to be tested having a concentration of 1, 3, 10, 30, 50, and 100 μg/mL (as reduced to free form) were prepared. As a negative control, 0.1 mol/L NaOH was employed.
Chinese hamster lung (CHL/IU) cells in logarithmic growth phase were employed. The cells were treated in a culture solution containing each sample to be tested for 24 hours. Subsequently, a chromosome specimen was prepared from the thus-treated cells. The culture solution employed was an Eagle's MEM (product of NISSUI PHARMACEUTICAL CO., LTD.) medium containing 15% fetal bovine serum (15% FBS-MEM).
In each sample concentration, 100 cells during metaphase were observed, to thereby record types and numbers of the chromosomal aberration.

[16] = system: Slc:ddY male mice; experiment: Effect of inducing convulsion, intracisternal administration to mice; format: in vivo; settings: i.cist., Probit method
Experimental: The compounds (Compound Nos. 1, 2, and 3) of the present invention and Comparative Compounds A and B were individually dissolved in 5% glucose, to thereby prepare several samples to be tested. Groups of six-week-old Slc:ddY male mice (body weight: 23.9 to 27.4 g), each group consisting of 6 mice, were employed in the test. Each of the above-prepared samples was administered intracisternally to each mouse belonging to each group at concentrations shown in Tables 2 and 3 (5 μL/mouse). During 30 minutes after administration, it was observed whether each mouse suffered convulsion or died in an individual cage. Administration was performed according to the method described by Ueda, et al. (Reference 1).
Reference 1: Ueda H, Amano H, Shiomi H, Takagi H: Comparison of the analgesic effects of various opioid peptides by a newly devised intracisternal injection technique in conscious mice. Eur J Pharmacol. 1979; 56: 265-8.
Significant difference test between groups was performed in terms of incidence of convulsion according to the Fisher's direct probability calculation method (one-sided test, level of significance: P<0.05). On the basis of percentile incidence of convulsion, CD50 (50% concentration for inducing convulsion) and 95% confidence limit were calculated by the Probit method.

| SMILES | MIC [1] | MIC [2] | MIC [3] | MIC [4] | MIC [5] | MIC [6] | MIC [7] | MIC [8] | MIC [9] | MIC [10] | MIC [11] | MIC [12] | MIC [13] | MIC [14] | Percentile induction of structural aberration (TA %) ([15]; 1 μg/mL) | Percentile induction of structural aberration (TA %) ([15]; 3 μg/mL) | Percentile induction of structural aberration (TA %) ([15]; 10 μg/mL) | Percentile induction of structural aberration (TA %) ([15]; 30 μg/mL) | Percentile induction of structural aberration (TA %) ([15]; 50 μg/mL) | Percentile induction of structural aberration (TA %) ([15]; 100 μg/mL) | other results |
| --- | --- | --- | --- | --- | --- | --- | --- | --- | --- | --- | --- | --- | --- | --- | --- | --- | --- | --- | --- | --- | --- |
| CC[C@H]1CN(c2c(F)cc3c(=O)c(C(=O)O)cn([C@@H]4C[C@@H]4F)c3c2OC)C[C@H]1N [Compound No. 1, 7-[(3S,4S)-3-Amino-4-ethylpyrrolidin-1-yl]-6-fluoro-1-[(1R,2S)-2-fluorocyclopropyl]-8-methoxy-1,4-dihydro-4-oxoquinoline-3-carboxylic acid] | 0.025 µg/mL (≈ 0.0614 µM) | 0.006 µg/mL (≈ 0.0147 µM) | 0.012 µg/mL (≈ 0.0295 µM) | 0.2 µg/mL (≈ 0.491 µM) | 0.2 µg/mL (≈ 0.491 µM) | 0.1 µg/mL (≈ 0.245 µM) | 0.006 µg/mL (≈ 0.0147 µM) | 0.05 µg/mL (≈ 0.123 µM) | 0.1 µg/mL (≈ 0.245 µM) | 0.025 µg/mL (≈ 0.0614 µM) | 0.05 µg/mL (≈ 0.123 µM) | 0.05 µg/mL (≈ 0.123 µM) | 0.1 µg/mL (≈ 0.245 µM) | 0.006 µg/mL (≈ 0.0147 µM) | 0% | 1% | 2% | 3% | 2% | 7% | Significant increase in number of the cells exhibiting chromosomal aberration [15]: not observed; CD50 (50% concentration for inducing convulsion), with 95% confidence limit [16]: 49.2^b) μg/5 μL/mouse |
| CC[C@H]1CN(c2c(F)cc3c(=O)c(C(=O)O)cn4c3c2OC[C@@H]4C)C[C@H]1N [Compound No. 3, (3S)-10-[(3S,4S)-3-Amino-4-ethylpyrrolidin-1-yl]-9-fluoro-2,3-dihydro-3-methyl-7-oxo-7H-pyrido[1,2,3-de][1,4]benzoxazine-6-carboxylic acid] | 0.05 µg/mL (≈ 0.133 µM) | 0.006 µg/mL (≈ 0.016 µM) | 0.006 µg/mL (≈ 0.016 µM) | 0.78 µg/mL (≈ 2.08 µM) | 0.1 µg/mL (≈ 0.266 µM) | 0.025 µg/mL (≈ 0.0666 µM) | 0.012 µg/mL (≈ 0.032 µM) | 0.1 µg/mL (≈ 0.266 µM) | 0.05 µg/mL (≈ 0.133 µM) | 0.1 µg/mL (≈ 0.266 µM) | 0.2 µg/mL (≈ 0.533 µM) | 0.05 µg/mL (≈ 0.133 µM) | 0.1 µg/mL (≈ 0.266 µM) | 0.006 µg/mL (≈ 0.016 µM) | 3% | 0% | 2% | 1% | 5% | 9% | Significant increase in number of the cells exhibiting chromosomal aberration [15]: not observed; CD50 (50% concentration for inducing convulsion), with 95% confidence limit [16]: 64.5 (47.7-80.8) μg/5 μL/mouse |
